# Experiments:
# Assay in all cases: AUC of viability dose-response curve (% viability x log10 dose units); higher = less sensitive
# Conditions in all cases: 48 h
# NOMO1 = test system: NOMO1
# Procedure, shortened: (§1)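 Leukemia cells adapted to each medium were seeded in 1536-well plates (500 or 1000 cells/well) and given library compounds in DMSO for 48 h at 37°C. The 11 threefold doses spanned 47 μM to 0.79 nM, and CellTiter-Glo One luminescence was normalised per plate to DMSO and cell-free wells before four-parameter log-logistic fitting on log10 dose. Area under the curve was integrated with the trapezoidal rule, scaling curves above full viability and removing curves that failed quality control.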
# P12-Ichikawa = test system: P12-Ichikawa
# Procedure, shortened: as §1
# SEM cells = test system: SEM cells
# Procedure, shortened: as §1
# [1] = RPMI 5 mM glucose + 10% dialyzed FBS
SMILES,AUC of viability dose-response curve (NOMO1; HPLM + 10% dialyzed FBS),AUC of viability dose-response curve (NOMO1; RPMI 5 mM glucose + 10% FBS),AUC of viability dose-response curve (NOMO1; [1]),AUC of viability dose-response curve (P12-Ichikawa; HPLM + 10% dialyzed FBS),AUC of viability dose-response curve (P12-Ichikawa; RPMI 5 mM glucose + 10% FBS),AUC of viability dose-response curve (P12-Ichikawa; [1]),AUC of viability dose-response curve (SEM cells; HPLM + 10% dialyzed FBS),AUC of viability dose-response curve (SEM cells; RPMI 5 mM glucose + 10% FBS),AUC of viability dose-response curve (SEM cells; [1])
COc1cc2nc(N(C)CCCNC(=O)C3CCCO3)nc(N)c2cc1OC (centres undefined),336,297,331,416,431,384,358,355,378
CC(C)n1nc(-c2cc3cc(O)ccc3[nH]2)c2c(N)ncnc21,350,399,355,360,332,341,306,327,317
N=C(CCSCc1csc(N=C(N)N)n1)N[S+](N)(=O)[O-],459,439,461,467,454,432,452,458,421
Cc1nc(NC(=O)N2CCC[C@H]2C(N)=O)sc1-c1ccnc(C(C)(C)C(F)(F)F)c1,,,,424,386,399,384,431,400
Cl.Cl.Cl.O[C@@H](COc1cccc2ncccc12)CN1CCN([C@@H]2c3ccccc3[C@@H]3[C@H](c4ccccc42)C3(F)F)CC1,404,397,401,418,391,395,421,418,449
O=C(NOCC(O)CO)c1cc(Br)c(F)c(F)c1Nc1ccc(I)cc1F (centres undefined),238,244,219,361,333,345,327,340,306
C=C(C)[C@@H]1CC[C@]2(C(=O)O)CC[C@]3(C)[C@H](CC[C@@H]4[C@@]5(C)CC[C@H](O)C(C)(C)[C@@H]5CC[C@]43C)[C@@H]12,452,473,466,445,461,427,420,410,397
COC1=CC=CC=C1C2=CC=CC(=C2)C/3=C(O)/C4=CC(=C(Cl)C=C4NC3=O)C#N,368,401,400,361,388,380,350,288,344
CN[S+](=O)([O-])Cc1ccc2[nH]cc(CCN(C)C)c2c1,454,443,454,467,457,460,442,431,456
CN(C)c1ccc(O)c2c1C[C@H]1C[C@H]3[C@H](N(C)C)C(O)=C(C(N)=O)C(=O)[C@@]3(O)C(O)=C1C2=O,475,474,409,468,452,420,448,467,475
COc1ccc(C[C@@H](C)[C@@H](C)Cc2ccc(OC)c(OC)c2)cc1OC,326,315,328,355,353,354,336,364,320
CCC[C@H](NC(=O)/C(C#N)=C/c1cccc(Br)n1)c1ccccc1,437,454,448,449,447,444,,,
CCCCn1c(=O)n(Cc2ccccc2F)c(=O)c2nc(Cc3ccc(NC(C)=O)cc3)[nH]c21,,,,425,409,410,452,442,444
COC[C@H]1OC(=O)C2=COC3=C2[C@@]1(C)\C4=C(C5CCC(=O)[C@@]5(C)C[C@H]4OC(C)=O)/C3=O (some centres undefined),,,,,,,397,432,356
CN(CC#C)C/C1=C/C2=CC=CC=C2OC3=CC=CC=C13,401,400,407,417,407,400,,,
COc1nccc(-c2c(-c3ccc(F)cc3)ncn2C2CCNCC2)n1,,,,452,455,453,460,375,454
CCCc1nc(C(C)(C)O)c(C(=O)O)n1Cc1ccc(-c2ccccc2-c2nn[nH]n2)cc1,439,454,461,448,452,413,,,
CC(C)[C@@H](N(CCCN)C(=O)C1=CC=C(C)C=C1)C/2=N/C3=CC(=CC=C3C(=O)N2CC4=CC=CC=C4)Cl,123,82.4,106,61,66.9,97.9,,,
CC(C)OC(=O)OCOP(=O)(CO[C@H](C)Cn1cnc2c(N)ncnc21)OCOC(=O)OC(C)C.O=C(O)C=CC(=O)O,446,456,448,,,,,,
Cc1ccccc1N1C(=O)c2cc([S+](N)(=O)[O-])c(Cl)cc2NC1C (centres undefined),,,,449,460,450,448,413,462
